Assay results from the supplement of paper PMC10307832.

What was measured:
Experiment in all cases: relative viability (nuclei count vs DMSO), 5 days (fraction); higher = more cells survive
[1] = compound: CC1=CC=C(C=C1)C(=O)CN2C3=C(CCCC3)SC2=N [Pifithrin_alpha] + Cc1nc(NC(=O)N2CCC[C@H]2C(N)=O)sc1-c1ccnc(C(C)(C)C(F)(F)F)c1 [Alpelisib] (partner 2 µM)
Method in brief: (§1)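 Dosing by pin tool came one day after lung cancer cell lines were seeded in 1536-well plates, using either one drug or a fixed anchor-drug dose plus five library-drug doses (not always all listed) in √10 steps. After 5 days, nuclei were counted on 4× images. Relative viability is treated-well nuclei count divided by vehicle-well nuclei count, and values are medians of duplicate plates.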

[2] = compound: Nc1nc(Nc2ccc3c(c2)CC[C@@H](N2CCCC2)CC3)nn1-c1cc2c(nn1)-c1ccccc1CCC2 [Bemcentinib] + CS(=O)(=O)N1CCN(Cc2cc3nc(-c4cccc5[nH]ncc45)nc(N4CCOCC4)c3s2)CC1 [Pictilisib] (partner 1 µM)
Method in brief: as §1

[3] = compound: CNC(=O)c1ccccc1Sc1ccc2c(/C=C/c3ccccn3)n[nH]c2c1 [Axitinib] + Nc1ncn([C@H]2C[C@H](O)[C@@H](CO)O2)c(=O)n1 [Decitabine] (partner 2 µM)
Method in brief: as §1

[4] = compound: Nc1nc(Nc2ccc3c(c2)CC[C@@H](N2CCCC2)CC3)nn1-c1cc2c(nn1)-c1ccccc1CCC2 [Bemcentinib] + N=C(N)NC(=N)NCCc1ccccc1 [Phenformin] (partner 250 µM)
Method in brief: as §1

Cell Line	relative viability ([1]; first compound 1 µM)	relative viability ([1]; first compound 3.162 µM)	relative viability ([1]; first compound 10 µM)	relative viability ([1]; first compound 31.62 µM)	relative viability ([1]; first compound 100 µM)	relative viability ([2]; first compound 0.04 µM)	relative viability ([2]; first compound 0.1265 µM)	relative viability ([2]; first compound 0.4 µM)	relative viability ([2]; first compound 1.265 µM)	relative viability ([2]; first compound 4 µM)	relative viability ([3]; first compound 0.005 µM)	relative viability ([3]; first compound 0.01581 µM)	relative viability ([3]; first compound 0.05 µM)	relative viability ([3]; first compound 0.1581 µM)	relative viability ([3]; first compound 0.5 µM)	relative viability ([4]; first compound 0.04 µM)	relative viability ([4]; first compound 0.1265 µM)	relative viability ([4]; first compound 0.4 µM)	relative viability ([4]; first compound 1.265 µM)	relative viability ([4]; first compound 4 µM)
NCI-H596	0.373	0.452	0.492	0.532	0.443	0.374	0.443	0.379	0.421	0.403	1.15	0.976	1.32	0.935	1.07	0.698	0.733	0.783	0.713	0.772
NCI-H727	0.55	0.533	0.512	0.415	0.492	0.221	0.358	0.413	0.41	0.456	0.962	0.842	0.835	1.01	0.837	0.626	0.709	0.493	0.363	0.671
NCI-H1993		0.692	0.757	0.568	0.607	0.833	0.853	0.834	0.904	0.777	0.709	0.634	0.609	0.631	0.668	0.465	0.501	0.528	0.505	0.487
NCI-H1437	1.12	1.01	0.933	0.749	0.989	0.457	0.479	0.418	0.409	0.448	0.608	0.594	0.555	0.59	0.561	0.305	0.33	0.375	0.3	0.296
NCI-H1792	0.688	0.67	0.485	0.469	0.657	0.3	0.281	0.238	0.337	0.288	0.527	0.508	0.429	0.533	0.575	0.293	0.293	0.326	0.193	0.248
NCI-H2023	0.589	0.396	0.454	0.289	0.367	0.205	0.261	0.239	0.276	0.248	0.209	0.243	0.238	0.219	0.226	0.398	0.445	0.424	0.423	0.365
LK-2	1.06	1.03	1.02		1.56	0.526	0.608	0.583	0.748	0.611	0.262	0.245	0.298	0.347	0.222	0.461	0.483	0.443	0.463	0.828
HOP-62	1.18	1.1	0.848	0.62	0.931	0.661	0.82		0.712	0.92	0.212	0.247	0.202	0.19	0.276	0.694	0.707	0.834	0.704	0.645
